The record followed here is patent publication US10087199B2, “Super-resolution imaging compositions and methods using same” (Yale University, priority 2014, dated 2018).

This data set has as its system HeLa cells. The experiment in a line: Cell viability / cell- and photo-toxicity under prolonged imaging. The format is cell-based. The following applies: at concentrations as high as 2 μM. Here is the method: In the experiments described above, the cells were exposed to Cer-TCO/SiR-Tz for minutes, a relatively short time period. To evaluate whether this Golgi labeling strategy would result in cell- or photo-toxicity over prolonged periods (such as hours), HeLa cells were treated with varying concentrations of either Cer-TCO/SiR-Tz or BODIPY® FL C5-ceramide (BODIPY-Cer) (Marks, et al., 2008, Cell Biol. 130:819-832; Pagano, et al., 1991, J. Cell Biol. 113:1267-1279), a commercially available fluorescent dye that labels the Golgi. […]
Hela cells stably expressing GalNAcT2-GFP were cultured on 35 mm glass bottom dishes subsequently labeled with various concentrations of TCO-Cer (0, 1, 2, and 5 μM) and SiR-Tz (0, 1, and 2 μM) following the protocol described elsewhere herein. […] After equilibration for 30 min, phase contrast images were taken at an interval of 20 min and fluorescence images at an interval of 10 min over 400-750 min. […] The number of physically intact cells was counted at each time point. For each condition at least 110 cells were counted/observed in the initial images (n0 (0 μM TCO-Cer, 0 μM SiR-Tz)=123 cells, n0 (2 μM TCO-Cer, 2 μM SiR-Tz)=113 cells, n0 (1 μM TCO-Cer, 1 μM SiR-Tz)=130 cells, n0 (5 μM TCO-Cer, 1 μM SiR-Tz)=120 cells, n0 (5 μM BODIPY-Cer)=123 cells).

`CCCCCCCCCCCCC/C=C/[C@@H](O)[C@H](CO)NC(=O)CCCCCNC(=O)OC1CCCC2=C(c3ccc(CNC(=O)c4ccc(C(=O)[O-])c(C5=C6C=CC(=[N+](C)C)C=C6[Si](C)(C)c6cc(N(C)C)ccc65)c4)cc3)NN=CC2CC1` (stereo partly drawn) [Cer-SiR, 4-((4-(7-(((6-(((2S,3R,E)-1,3-dihydroxyoctadec-4-en-2-yl)amino)-6-oxohexyl)carbamoyl)oxy)-2,4a,5,6,7,8,9,10-octahydrocycloocta[d]pyridazin-1-yl)benzyl)carbamoyl)-2-(7-(dimethylamino)-3-(dimethyliminio)-5,5-dimethyl-3,5-dihydrodibenzo[b,e]silin-10-yl)benzoate]: the Toxicity result is “non-toxic”.
